# Results taken from patent US8614231B2, “Immunosuppressor based on the blockage of TCR-Nck interaction” (Consejo Superior de Investigaciones Cientificas, priority 2008, dated 2013).
# Entries after “also recorded” stand apart in the source; their conditions may differ.
# Legend:
# T lymphocytes = experiment: Inhibitory action on the activation of T lymphocytes (summary statement); format: cell-based; conditions: both in mice and humans; concentrations as low as
# Source text: It inhibited the production of IFNγ, IL-10 and TNFβ, as well as the generation of human cells that produce IFNγ in response to anti-CD3 and anti-CD28 in human lymphocytes stimulated with anti-CD3 and anti-CD28 antibodies.
# human T lymphocytes [1] = experiment: Proliferation of human T lymphocytes stimulated with anti-CD3 antibodies (CFSE, flow cytometry); format: cell-based; conditions: for IC50: Homo sapiens, T-lymphocyte, 120 h, PBMNC, 5 days
# Experimental: For the next round of selection of the compounds resulting from virtual screening with potential for blocking Nck-CD3ε interaction, PBMNC purified from healthy donors were labelled with fluorescence and incubated for 5 days on plates covered with anti-CD3 OKT3 antibodies in the presence of different doses of these compounds. Proliferation of T lymphocytes was evaluated by flow cytometry in accordance with the loss of green fluorescence (CFSE) within the CD8+ population.
# (§1) PBMNCs purified from healthy donors were labelled with CFSE and incubated for 5 days on plates coated with anti-CD3 OKT3 antibody in the presence of various doses of the compounds indicated, among them CBM-1. The proliferation was evaluated by flow cytometry in accordance with the loss of green fluorescence (CFSE) within the CD4+ and CD8+ populations. A parallel experiment was performed on the proliferation of human IL2-dependent lymphoblasts. Purified PBMNC from healthy donors were stimulated with PHA for 48 hours and labelled with CFSE. The were subsequently cultured for 3 days in the presence of 100 IU/ml of human recombinant IL2 in the presence of concentrations of the compounds used, particularly CBM-1.
# [2] = system: Human Jurkat T lymphocyte cell line; experiment: Toxicity by propidium iodide exclusion and flow cytometry, Jurkat; format: cell-based; conditions: 48 hours, even at the highest dose
# Experimental: (§2) Human Jurkat T lymphocyte cell line and human Raji lymphoblastoid B cell line were incubated with the indicated concentrations of CBM-1 for 48 hours. The toxicity of the compound was estimated by propidium iodide exclusion and flow cytometry. The two cell lines remained with 100% viability after 48 hours, even at the highest dose of the compound.
# human T lymphocytes [3] = experiment: Cytokine secretion by human T lymphocytes (PBMNC) stimulated with anti-CD3 antibodies; format: cell-based; conditions: for IC50: Homo sapiens, T-lymphocyte, supernatant at 72 hours, anti-CD3
# Experimental: Inhibition by CBM-1 of the secretion of cytokines by human T lymphocytes in response to stimulation with anti-CD3 antibodies. Peripheral blood mononuclear cells (PBMNC) purified from healthy donors were stimulated on plates coated with anti-CD3 OKT3 antibodies in the presence of various doses of CBM-1 for 72 hours. The concentration of the indicated cytokines in the supernatant (IL-10, IFN-γ, and TFN-β) was evaluated by multiparametric flow cytometry (BD cytometric bead array).
# The effect of CBM-1 on the production of cytokines was measured in an assay in which human PBMNC were stimulated with anti-CD3 antibodies. The supernatant of these cells was collected at 72 hours and several cytokines were simultaneously measured by a flow cytometry assay.
# SH3.1 domain of Nckα = molecular target: T1, SH3.1 domain of Nckα (Homo sapiens, UniProt P16333); experiment: NMR chemical displacements in the SH3.1 domain on compound binding; conditions: residues Trp41 and Tyr50/Phe53 participate
# T1 construct: The three-dimensional structure of the SH3.1 domain of Nckα
# Experimental: Displacements of the amino acid residues in the SH3.1 domain caused by the interaction with compound CBM-1. The lateral chains of the amino acids that changed their position after binding the compound are represented. The changes are consequent to the binding of compound CBM-1 to the pocket visualised in virtual screening.
# The three-dimensional structure of the SH3.1 domain of Nckα, in the presence and in the absence of peptide 11R085, was determined in parallel (with the collaboration of the laboratory of Professors María Angeles Jiménez and Manuel Rico, of the Instituto de Química-Física Rocasolano, CSIC, Madrid) (FIG. 6). This enabled validation of the prediction of the structural computer model used for virtual screening. In addition, it allowed measurement of the chemical displacements caused to the structure by compound CBM-1 (FIG. 7).
# The displacements of residues in the SH3.1 domain validate the prediction of the interaction of the SH3.1 domain with CBM-1 at a molecular level and are consistent with the model.
# [4] = system: C57BL/6 mouse spleen cells; experiment: Intracellular IFNγ expression by mouse CD4+ T cells stimulated with anti-CD3 + anti-CD28; format: cell-based; conditions: Lymphocyte, anti-CD3 + anti-CD28 48 hours, then brefeldin A 6 hours, read-out: IC50 generation of IFNγ-secreting Th1 lymphocytes
# Source text: Intracellular expression of IFNγ in response to stimulation with a mixture of anti-CD3 and anti-CD28.
# The cells were first stained with CD4-PE and after fixing and rinsing they were stained with anti-IFNγ antibody.
# [5] = system: human Raji lymphoblastoid B cell line; experiment: Toxicity by propidium iodide exclusion and flow cytometry, Raji; format: cell-based; conditions: 48 hours, even at the highest dose
# Experimental: as §2
# [6] = system: OT-I transgenic mouse primary lymphocytes; experiment: IL2 production and antigen-induced proliferation of mouse T lymphocytes; format: cell-based
# Source text: Thus, Nck-CD3ε interaction as a molecular target for immunosuppressor development has been validated.
# [7] = system: human IL2-dependent lymphoblasts; experiment: Proliferation of human IL2-dependent lymphoblasts (IL2R-dependent proliferation); format: cell-based; conditions: at concentrations of 20 μM; 100 IU/ml IL2, 3 days
# Experimental: as §1
# [8] = 72 hours, up to concentrations of 30 μM
smiles,measurement,setting,value
c1ccc(C2=C(CN3CCCCC3)C(c3ccccc3)c3ccccc3O2)cc1 (centres unmarked) [CBM-1],concentration with inhibitory action on the activation of T lymphocytes,T lymphocytes,≥ 0.1 µM
same,IC50,"human T lymphocytes [1]; anti-CD3 OKT3, CD4+ population, read-out: IC50 proliferation of CD4+ lymphocytes induced by anti-CD3",2000 nM
same,IC50,"human T lymphocytes [1]; anti-CD3 OKT3, CD8+ population, read-out: IC50 proliferation of CD8+ lymphocytes induced by anti-CD3",3000 nM
same,blocking activity on the proliferation of the lymphocytes (in words),"human T lymphocytes [1]; anti-CD3 OKT3, 5 days, compounds from virtual screening",highest activity and least toxicity; also recorded: best and least toxic
same,viability,[2],100%
same,effect on the production of IL5,human T lymphocytes [3]; [8],did not show any effect; also recorded: no effect
same,effect on the production of IL6,human T lymphocytes [3]; [8],did not show any effect; also recorded: no effect
same,effect on the release of IL1-β,"human T lymphocytes [3]; 72 hours, various doses",did not show any effect
same,IC50,human T lymphocytes [3]; read-out: IC50 IFNγ production,300 nM
same,IC50,human T lymphocytes [3]; read-out: IC50 IL10 production,200 nM
same,IC50,human T lymphocytes [3]; read-out: IC50 TNFβ production,200 nM
same,binding to the SH3.1 domain (NMR),SH3.1 domain of Nckα,binds to a hydrophobic pocket
same,IC50,[4],800 nM
same,viability,[5],100%
same,proliferation of antigen-dependent mouse T lymphocytes (in words),[6],inhibited
same,release of IL2 (in words),[6]; mouse T lymphocytes,inhibited
same,inhibition of the proliferation of human IL2-dependent lymphoblasts,[7],did not significantly inhibit
